The text below walks through data of patent US20160010138A1, “RAPID DETERMINATION OF MICROBIAL DROWTH AND ANTIMICROBIAL SUSEPTABILITY” (priority 2013, published 2016).

Read-outs that look alike come from different tables or passages of the source.

Test [1] has as its system Klebsiella pneumoniae (KP) clinical isolates. As to the kind of experiment: KPC assay: growth in ertapenem with and without boronic acid inhibitor (MADM). In kind it is cell-based.
Experimental: The bottom surface was coated with poly-L-lysine to immobilize live bacteria.
Clinical isolates of Pseudomonas aeruginosa (PA), Acinetobacter baumannii (AB), and Klebsiella pneumoniae (KP) were tested. […] Test results are expressed as nonsusceptible (NS) or susceptible (S).
Isolates were grown on blood agar, suspended colonies in tryptic soy broth for 2 hours, then centrifuged and resuspended log-phase bacteria in low ionic strength electrokinetic buffer.
MADM system analysis was performed using a 32-channel disposable fluidic cassette (FIG. 4A) to measure growth of immobilized bacteria. […] Klebsiella pneumoniae (KP) clinical isolates were tested for ertapenem (ETP) nonsusceptibility at 16 μg/mL with and without the inhibitors aminophenyl boronic acid (APB) at 300 μg/mL or benzo(b)thiophene-2-boronic acid (BTB) at 50 μg/mL to identify putative KPC-positive strains.
10 μL aliquots of 5E+7 CFU/mL were pipetted into separate flowcells for each isolate and test condition. Microorganisms were electrokinetically concentrated onto the flowcell detection surface with an electrical field to the positively charged lower surface to immobilize cells and yield 10-100 bacteria per field of view (FIG. 4B). […] The system measured growth at 10-minute intervals. […] Growth was evaluated, interpreting results for PA, AB, and KP-ETP as NS if growth had not arrested within 3 hours. […]
Test [2] relates to heat-killed cells and isopropyl alcohol killed cells. As to the kind of experiment: Esterase activity indicator fluorescence in killed cells (MADM system). The test is classed as cell-based. The text has this:
Physiologic indicators of active bacteria include indicators of growth, responsiveness to external stimulus, transcription, translation, energy dependent activity, enzyme activity, and an intact permeability barrier. The indicators tested experimentally were grouped according to the following functional categories of physiologic states to which they are responsive, which included indicators of respiratory and metabolic activity, and membrane integrity.
Carboxyfluorescein diacetate/carboxyfluorescein diacetate succinimidyl ester (CFDA/CFDA-SE; Molecular Probes) compounds are converted into amine-reactive fluorescent molecules when cleaved by esterases present within active cells. When CFDA-SE is taken up by live cells, the fluorescent molecule produced by esterase cleavage and amine reaction is retained inside the cell. […] The product formed by uptake and processing of CFDA, on the other hand, should be more “leaky” over time and may exit a dead cell. […] Shorter delay times have not yet been investigated but may be compatible with avoiding false positive results while providing a shorter assay period.

The subject of test [3] is Pseudomonas aeruginosa (PSAE). The test is classed as cell-based. The following applies: ID PSAE, culture result. The text has this:
A total of 281 de-identified remnant respiratory specimens were collected from hospital and commercial sources. The specimens included 25 endotracheal aspirates (ETA) of unknown age obtained from a specimen vendor. Also included were 230 mini-bronchoalveolar lavage (mini-BAL) and 26 ETA specimens obtained from Denver Health Medical Center (DHMC). DHMC specimens were 7-21 days old. AST results were available for all mini-BAL specimens but not for ETA. Accompanying reports also included semi-quantitative ID used to select 92 bacteria-positive specimens for analysis using the MADM system. Targets included Pseudomonas aeruginosa, Acinetobacter baumannii complex, and Staphylococcus aureus. Controls used standard culturing methods (Cx).
(§1) These specimens were prepped for introduction into the MADM system. The system performed quantitative ID for Staphylococcus aureus (STAU), Pseudomonas aeruginosa (PSAE), and Acinetobacter spp. (ABCC). Concurrent quantitative culture was performed on specimens. The MADM system performed resistance phenotype tests on STAU-containing specimens for cefoxitin (FOX) MRSA phenotyping and clindamycin (CLI) resistance. The system tested ABCC- and PSAE-containing specimens for amikacin (AN) and imipenem (IMP) resistance.

In test [4] the test system is Pseudomonas aeruginosa (PSAE). The experiment in a line: MADM system resistance phenotype tests on respiratory specimens. In kind it is cell-based. To be noted: for resistance phenotype result (S/R), MADM: ID PSAE. The protocol:
as §1
(§2) Specimen preparation used a brief procedure to release bacteria, reduce imaging background, and suspend bacteria in a low ionic strength buffer. […] The remaining 62 specimens were tested using the MADM system.
(§3) 20 μL samples of prepared specimen were pipetted into independent flowcell channels and a low-voltage electrical field was applied for 5 minutes. The electrical field concentrated bacteria onto a functional surface coating that immobilized the bacteria on the lower flowcell surface. Each flowcell channel received only one type of test reagent solution that contained a selective agent if required (only for channels used to test AB, sulbactam 32 μg/mL).
(§4) The instrument acquired images at 10-minutes intervals for 180 minutes, using 10 fields of view in each flowcell channel through a 20× objective. Imaging used darkfield illumination. Identification variables included response to selective agents (AB with sulbactam), cell morphology, growth morphology, and growth rate.
(§5) Identification algorithms applied to each individual immobilized bacterial cell. The system measured the amount of change in mass over time to compute growth rates. Identification consisted of computing and combining probability scores for morphology, response to selective media, and growth rates to produce a receiver operating characteristic curve (ROC) to derive classification criteria.

In test [5] the test system is Acinetobacter spp. (ABCC). The description is as above. The test is classed as cell-based, Acinetobacter sp. As to the method:
as §1, §2, §3, §4, §5

A further test deals with Steno. As to the kind of experiment: MADM (BACcel) phenotype/sensitivity by growth analysis, surveillance mini-BAL. The test is classed as cell-based, S. maltophilia. The protocol:
(§6) Adult MICU patients with identified surrogate were included within 72 hours of intubation and if anticipated to require MV for >48 h. Moribund state or pregnancy were exclusions. Surveillance mini-BAL (Combicath, Plastimed) was performed on Day 1, 3, 5, 7 and 10 of MV. Samples were split and processed for both a) routine respiratory quantitative microbiological culture and sensitivity assays (>48 h result availability) and b) rapid (<8 hour) flowcell/surface-capture assays using the MADM system. Viable microorganisms were identified using growth analysis enhanced by a focused VAP antibody panel (S. aureus, P. aeruginosa, A. baumannii). Untypable organisms were also reported. Sensitivity was assessed using growth analysis. Attending physicians were blinded to MADM system results.
(§7) BAL sample were prepared, removing debris and separating microorganisms from other sample material. Sample microorganisms were introduced into a multichannel fluidic cassette as described elsewhere herein. Bacteria were concentrated and retained on the lower surface of all flowcells using low-voltage electrical field (5 min) Antibody labeling of bacteria in flowcells was used to aid identification.
(§8) The automated digital microscopy system was used to perform darkfield imaging of 10 fields of view every 10 minutes for 180 minutes in each flowcell channel. Initial epifluorescence imaging was also performed for antibody detection. […] Identification consisted of probability scores based on microorganism morphology and growth rates. Antibody labeling identification data was also incorporated. Observed microorganisms were then classified as STAU, PSAE, or non-target. Antibiotic responses were used to aid identification when appropriate. Quantitation was performed by counting identified microorganisms and computing original specimen CFU/mL.

The subject of test [6] is Staphylococcus aureus (STAU). The experiment in a line: Culture (Cx) / hospital AST comparator on respiratory specimens. As to resistance phenotype result (S/R), Cx: key: S: susceptible; R: resistant. The test is classed as cell-based. To be noted: for resistance phenotype result (S/R), Cx: ID STAU, culture result, MRSA by oxacillin. As to the method:
DHMC specimens were 7-21 days old. […] Controls used standard culturing methods (Cx).
(§9) (ABCC). Concurrent quantitative culture was performed on specimens.

In another test the test system is STAU. The experiment in a line: MADM (BACcel) phenotype/sensitivity by growth analysis, surveillance mini-BAL. The test is classed as cell-based, S. aureus. As to the method: as §6, §7, §8
The subject of test [7] is Staphylococcus aureus (STAU). The experiment in a line: MADM system resistance phenotype tests on respiratory specimens. To be noted: ID STAU, MRSA by FOX. The test is classed as cell-based. As to the method:
as §9
Specimen preparation used a brief procedure to release bacteria, reduce imaging background, and suspend bacteria in a low ionic strength buffer. […] We rejected 10 samples with heavy interfering background when dilution to OD600=0.3 yielded organism counts inadequate for analysis. We rejected 7 samples for other technical deficiencies. The remaining 62 specimens were tested using the MADM system.
as §3, §4, §5

The mark [8] stands for this setting: dyes added immediately after heat or isopropyl alcohol treatment.

With `C[C@@H](O)[C@H]1C(=O)N2C(C(=O)O)=C(S[C@@H]3CN[C@H](C(=O)Nc4cccc(C(=O)O)c4)C3)[C@H](C)[C@H]12` [ETP, ertapenem], the “growth of susceptible (KPC-negative) strains” value in test [1] (ETP at 16 μg/mL (FIG. 21)) was “fail to grow”. Further, the “growth morphology during drug exposure” value in [1] (KPC clinical isolate, ETP 16 μg/mL, 20 and 90 min of exposure (FIG. 20)) was “abnormal growth morphology”.
Carboxyfluorescein diacetate [CFDA]: in test [2] (setting [8]), the “fluorescence of killed cells” value was “demonstrated fluorescence”.
With “carboxyfluorescein diacetate succinimidyl ester [CFDA-SE]”, the “fluorescence of killed cells” value is reported as “demonstrated fluorescence” in [2] (setting [8]) and “no fluorescence was observed” in test [2] (two hour post-heat-kill delay).
For `NCC[C@H](O)C(=O)N[C@@H]1C[C@H](N)[C@@H](O[C@H]2O[C@H](CN)[C@@H](O)[C@H](O)[C@H]2O)[C@H](O)[C@H]1O[C@H]1O[C@H](CO)[C@@H](O)[C@H](N)[C@H]1O` [AN, amikacin], the “resistance phenotype result (S/R), Cx” value in test [3] (specimen DH 430, Mini-BAL) was “S”; in [3] (specimen DH 554, BAL), “S”; in test [3] (specimen DH 641, Mini-BAL) it was “S”. Further, the “susceptibility of all PSAE” value in test [4] (all PSAE-containing respiratory specimens) is on record as “susceptible”. Besides, the “resistance phenotype result (S/R), MADM” value was “S” in test [4] (specimen DH 430, Mini-BAL); “S” in test [4] (specimen DH 554, BAL); “S” in test [4] (specimen DH 641, Mini-BAL); “S” in test [5] (ABCC-positive specimen (specimen name not given)). Besides, in [5] (all ABCC-containing respiratory specimens), the “susceptibility of all ABCC” value is on record as “susceptible”. For the same molecule, the “Phenotype, sensitivity (growth in antibiotic)” value in the test on Steno (Spec# 006-D1, BACcel ID Steno, 7.68 × 10^5 CFU/ml) is on record as “growth, TZP-”; with Steno (Spec# 006-D3, BACcel ID Steno, 1.60 × 10^4 CFU/ml), “growth, TZP-”.
On to `Cc1onc(-c2ccccc2)c1C(=O)N[C@@H]1C(=O)N2[C@@H]1SC(C)(C)[C@@H]2C(=O)O` [OXA, oxacillin], for which the “resistance phenotype result (S/R), Cx” value in test [6] (specimen DH 425, Mini-BAL) is reported as “S”; in test [6] (specimen DH 427, Mini-BAL), “S”; in [6] (specimen DH 439, Mini-BAL), “R”; in test [6] (specimen DH 440, BAL), “S”; in test [6] (specimen DH 457, BAL), “S”; in test [6] (specimen DH 485, BAL), “S”. The “resistance phenotype result (S/R), Cx” value in test [6] (specimen DH 509, BAL) was “S”; in [6] (specimen DH 514, Mini-BAL) it was “S”; in [6] (specimen DH 543, BAL) it was “S”; in [6] (specimen DH 550, BAL) it was “S”; in test [6] (specimen DH 556, Mini-BAL), “S”; in test [6] (specimen T12, ETA), “R”. Besides, in test [6] (the one discordant STAU sample), the “MRSA/MSSA call by oxacillin MIC (hospital AST)” value is given as “MSSA”.
In the case of `CCC[C@@H]1C[C@@H](C(=O)N[C@@H]([C@H]2O[C@H](SC)[C@H](O)[C@@H](O)[C@H]2O)[C@H](C)Cl)N(C)C1` [CLI, clindamycin], the “Phenotype, sensitivity” value is listed as “(MRSA) CLI-R” with STAU (Spec# 008-D7, BACcel ID STAU, 1.11 × 10^6 CFU/ml) and “MRSA, CLI-R” in the test on STAU (Spec# 033-D7, BACcel ID STAU, 6.64 × 10^4 CFU/ml). Also, the “resistance phenotype result (S/R), Cx” value in [6] (specimen DH 425, Mini-BAL) is “S”; in test [6] (specimen DH 427, Mini-BAL), “S”; in test [6] (specimen DH 439, Mini-BAL), “S”; in test [6] (specimen DH 440, BAL), “S”; in test [6] (specimen DH 457, BAL) it was “S”; in [6] (specimen DH 485, BAL) it was “S”. Moreover, the “resistance phenotype result (S/R), Cx” value in [6] (specimen DH 509, BAL) is on record as “S”; in test [6] (specimen DH 514, Mini-BAL), “S”; in [6] (specimen DH 543, BAL), “S”; in test [6] (specimen DH 550, BAL), “S”; in test [6] (specimen DH 556, Mini-BAL), “S”; in test [6] (specimen T12, ETA), “S”. Besides, the “resistance phenotype result (S/R), MADM” value in [7] (specimen DH 425, Mini-BAL) is “S”; in test [7] (specimen DH 427, Mini-BAL), “S”; in test [7] (specimen DH 439, Mini-BAL), “S”; in [7] (specimen DH 440, BAL) it was “S”; in [7] (specimen DH 457, BAL), “S”; in test [7] (specimen DH 485, BAL), “S”. The “resistance phenotype result (S/R), MADM” value in test [7] (specimen DH 509, BAL) is recorded as “S”; in test [7] (specimen DH 514, Mini-BAL), “S”; in test [7] (specimen DH 543, BAL) it was “S”; in [7] (specimen DH 550, BAL) it was “S”; in test [7] (specimen DH 556, Mini-BAL), “S”; in test [7] (specimen T12, ETA) it was “S”.
